Laboratory results reported in US9272027B1 (priority 2014, dated 2016).

Tested on: F. tularensis Schu4
Experiment: microbe, parasite or virus in culture
Assay type: cell-based
Conditions: Francisella tularensis, SCHU4, 44 h, read-out: IC50 of F. tularensis Schu4 growth inhibition

Work on `O=CN(O)CCCP(=O)(O)O` [fosmidomycin] yielded an IC50 of 5 µM.
